Measurements reported in US20250206738A1, “WRN INHIBITORS” (Nimbus Wadjet, Inc., priority 2023, published 2025).
Read-outs that look alike come from different tables or passages of the source.

Legend:
[1] = system: p21 induction in HCT 116 cells; assay: p21 induction in cells (In-Cell Western, p21/GAPDH ratio); assay type: cell-based; settings: 24 h compound incubation, read-out: P21_EC50
Description: Example 3: Method for Determining Effect on p21 Induction in Cells
The colon carcinoma cell line HCT 116 was obtained from ATCC and cultured in growth medium consisting of Mccoy's 5A Medium (Gibco 16600108) supplemented with 10% FBS (Transgene FS201-02) and 100 units/mL penicillin-streptomycin (Gibco 15140122) and maintained at 37° C. under 5% CO2. On the day of seeding, 2,000 cells in 30 μL of culture media were plated per well to Poly-D-Lysine 384 Well Black Clear Plates (Biocoat 356663) and incubated overnight at 37° C. under 5% CO2. The following day, compounds were serially diluted in DMSO for a total of 11 test concentrations. The typical starting concentration of compounds was 10 μM with 2-fold dilutions. Next, 150 nL of diluted compound was added in duplicate to the assay plate, using an Echo 655 (Labcyte). The plate was centrifuged at 500 RPM for 1 min and then incubated at 37° C. under 5% CO2 for 24 h. After 24h, medium was removed, and cells were fixed by adding 40 μL of 4% paraformaldehyde solution to each well and incubated for 20 min at room temperature. The plate was then washed 4 times with 100 μL per well of wash buffer (PBS with 0.1% Tween-20) using a microplate washer. Next, 30 μL of ice-cold methanol was added to each well and the plate was incubated at −20° C. for 10 min. The plate was washed 4 times with 100 μL per well of wash buffer by a microplate washer, then 30 μL per well of blocking buffer (Intercept PBS blocking buffer (LI-COR 927-70001) with 0.05% Tween-20) was added and the plate was incubated at room temperature with shaking for 2h. Next, to each test well, 20 μL of primary antibody solution (p21 Waf1/CIP (12D1) RabbitmAb (Cell Signaling Technologies 2947) diluted 1:1000 and GAPDH (D4C6R) Mouse mAb (Cell Signaling Technologies 97166) diluted 1:2000 in blocking buffer) was added and the plate was placed at 4° C., overnight. The following day, the plate was washed 5 times with 100 μL per well of wash buffer using a microplate washer for 5 min. 20 μL per well of secondary antibody (IRDye 680CW Goat anti-Mouse IgG (H+L) (LI-COR 926-68070) diluted 1: 2000 in Blocking Buffer and IRDye 800CW Goat anti-Rabbit IgG (H+L) (LI-COR 926-32211) diluted 1: 2000 in Blocking Buffer) was then added and the plate was stored for 2h in the dark at room temperature with shaking. The plate was then washed 4 times with 100 μL per well of wash buffer again using a microplate washer. Finally, the p21 signal and the GAPDH signal were quantified using a LI-COR Odyssey CLx Imager machine reading at 800 nm and 700 nm, respectively. Each plate contained DMSO control (low control) and an internal reference WRN inhibitor (high control) respectively. For quantitation, the 800 nm/700 nm ratio was calculated for each well to give fold p21 induction and then percent activation for each compound well was calculated as follows (100×(ratio cpd well−ratio low control)/(ratio high control−ratio low control)). EC50 values for each compound were generated after non-linear regression curve fitting using commercially available software.

[2] = target: T1, human Werner helicase (WRN, Uniprot Q14191, amino acids 517-1235 with L1074F point mutation; WRN-BV08) (Homo sapiens, UniProt Q14191, L1074F); assay: WRN (BV08) ADP-Glo assay; assay type: biochemical; settings: WRN-BV08 (aa 517-1235, L1074F); read-out: ADP-Glo_hWRN_IC50
T1 construct: Uniprot Q14191, amino acids 517-1235 with L1074F point mutation; 8xHis (C, cleaved yes); TEV cleavage site (ENLYFQG) (C, cleaved yes); made in house; host or cells: Sf9 insect cells (baculovirus, pFastBac)
Procedure, shortened: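 ADP formed by untagged WRN helicase fragment (aa 517-1235, L1074F; 0.15 nM final) on 0.1 nM DNA duplex with […], 60 min at 25 °C after 15 min compound preincubation, pH 7.5 Bicine buffer. Luminescent ADP-Glo readout; IC50 from 4-parameter fit of % inhibition.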

T1 sequence (Q14191 with tags, fused parts or gaps L1074F): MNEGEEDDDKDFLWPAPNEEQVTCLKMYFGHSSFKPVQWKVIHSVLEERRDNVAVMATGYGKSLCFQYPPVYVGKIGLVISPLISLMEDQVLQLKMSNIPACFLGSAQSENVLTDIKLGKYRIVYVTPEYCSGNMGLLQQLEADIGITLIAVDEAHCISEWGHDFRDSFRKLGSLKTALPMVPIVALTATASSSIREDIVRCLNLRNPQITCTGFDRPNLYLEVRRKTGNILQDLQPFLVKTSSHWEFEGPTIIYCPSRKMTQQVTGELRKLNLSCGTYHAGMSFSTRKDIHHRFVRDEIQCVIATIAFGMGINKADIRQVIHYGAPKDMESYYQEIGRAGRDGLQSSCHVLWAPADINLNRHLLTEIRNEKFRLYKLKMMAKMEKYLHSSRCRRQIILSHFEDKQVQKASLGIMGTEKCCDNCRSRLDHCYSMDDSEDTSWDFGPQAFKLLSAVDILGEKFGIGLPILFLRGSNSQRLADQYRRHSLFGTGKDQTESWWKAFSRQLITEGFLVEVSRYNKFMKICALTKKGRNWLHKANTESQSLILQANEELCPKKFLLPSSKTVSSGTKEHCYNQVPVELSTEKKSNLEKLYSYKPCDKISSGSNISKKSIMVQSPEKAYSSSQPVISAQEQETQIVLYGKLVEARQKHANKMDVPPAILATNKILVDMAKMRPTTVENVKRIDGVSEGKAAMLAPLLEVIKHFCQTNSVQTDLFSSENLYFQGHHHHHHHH

Compound	EC50 ([1]; Homo sapiens, HCT-116, 24 h) [nM]	IC50 [2] [nM]	EC50 [1] [nM]
CCc1c(N2CCN(C(=O)c3ncnc(C)c3O)[C@H]3CC[C@@H]32)c(=O)n2nc(C3=CCOCC3)nc2n1CC(=O)NC12CC(C(C)C)(C1)C2 [I-222, 2-(2-(3,6-dihydro-2H-pyran-4-yl)-5-ethyl-6-((1S,6S)-5-(5-hydroxy-6-methylpyrimidine-4-carbonyl)-2,5-diazabicyclo[4.2.0]octan-2-yl)-7-oxo-[1,2,4]triazolo[1,5-a]pyrimidin-4(7H)-yl)-N-(3-isopropylbicyclo[1.1.1]pentan-1-yl)acetamide]	≤ 500	5 to 50	
CCc1c(N2CCN(C(=O)c3ncnc(C)c3O)[C@H]3CC[C@@H]32)c(=O)c2nn(-c3ccnc(OC(F)F)c3)nc2n1CC(=O)NC12CC(C3CC3)(C1)C2 [I-223, N-(3-cyclopropylbicyclo[1.1.1]pentan-1-yl)-2-(2-(2-(difluoromethoxy)pyridin-4-yl)-5-ethyl-6-((1S,6S)-5-(5-hydroxy-6-methylpyrimidine-4-carbonyl)-2,5-diazabicyclo[4.2.0]octan-2-yl)-7-oxo-2,7-dihydro-4H-[1,2,3]triazolo[4,5-b]pyridin-4-yl)acetamide]	> 5000	5 to 50	
CCc1c(N2CCN(C(=O)c3c(O)ccc4ncoc34)CC2)c(=O)n2nc(-c3ccnc(OC)c3)nc2n1CC(=O)NC12CC(C3COC3)(C1)C2 [I-46, 2-(5-ethyl-6-(4-(6-hydroxybenzo[d]oxazole-7-carbonyl)piperazin-1-yl)-2-(2-methoxypyridin-4-yl)-7-oxo-[1,2,4]triazolo[1,5-a]pyrimidin-4(7H)-yl)-N-(3-(oxetan-3-yl)bicyclo[1.1.1]pentan-1-yl)acetamide]	> 5000	100 to 500	
CCc1c(N2CCN(C(=O)c3ncnc(C)c3O)[C@H]3CC[C@@H]32)c(=O)n2nc(C3=CCOCC3)nc2n1CC(=O)NC12CC(C3CC3)(C1)C2 [I-225, N-(3-cyclopropylbicyclo[1.1.1]pentan-1-yl)-2-(2-(3,6-dihydro-2H-pyran-4-yl)-5-ethyl-6-((1S,6S)-5-(5-hydroxy-6-methylpyrimidine-4-carbonyl)-2,5-diazabicyclo[4.2.0]octan-2-yl)-7-oxo-[1,2,4]triazolo[1,5-a]pyrimidin-4(7H)-yl)acetamide]	≤ 500	5 to 50	
CCc1c(N2CCN(C(=O)c3cnn(C)c3)CC2)c(=O)n2nc(C3=CCOCC3)nc2n1CC(=O)NC1Cc2ccc(F)cc2C1 (stereo not shown) [I-248, 2-(2-(3,6-dihydro-2H-pyran-4-yl)-5-ethyl-6-(4-(1-methyl-1H-pyrazole-4-carbonyl)piperazin-1-yl)-7-oxo-[1,2,4]triazolo[1,5-a]pyrimidin-4(7H)-yl)-N-(5-fluoro-2,3-dihydro-1H-inden-2-yl)acetamide]	> 5000	100 to 500	
CCc1c(N2CCN(C(=O)c3ncnc(C)c3O)[C@H]3CC[C@@H]32)c(=O)c2nc(C)c(C)nc2n1CC(=O)NC12CC(C3CCC3)(C1)C2 [I-210, N-(3-cyclobutylbicyclo[1.1.1]pentan-1-yl)-2-(6-ethyl-7-((1S,6S)-5-(5-hydroxy-6-methylpyrimidine-4-carbonyl)-2,5-diazabicyclo[4.2.0]octan-2-yl)-2,3-dimethyl-8-oxopyrido[2,3-b]pyrazin-5(8H)-yl)acetamide]	500 to 2000	5 to 50	
CCc1c(N2CCN(C(=O)c3ncnc(C)c3O)CC2)c(=O)c2nc(-c3ccnc(OC)c3)oc2n1CC(=O)NC12CC(C(F)(F)F)(C1)C2 [I-16, 2-(5-ethyl-6-(4-(5-hydroxy-6-methylpyrimidine-4-carbonyl)piperazin-1-yl)-2-(2-methoxypyridin-4-yl)-7-oxooxazolo[5,4-b]pyridin-4(7H)-yl)-N-(3-(trifluoromethyl)bicyclo[1.1.1]pentan-1-yl)acetamide]	> 5000	5 to 50	
CCc1c(C2=CCN(C(=O)c3ncnc(C)c3O)CC2C)c(=O)c2nn(-c3ccnc(OC)c3)nc2n1CC(=O)NC12CC(C(C)C)(C1)C2 (single isomer, unassigned) [I-98]		5 to 50	500 to 2000
CCc1c(N2CCN(C(=O)c3ncnc(C)c3O)[C@H]3CC[C@@H]32)c(=O)c2cn(-c3ccnc(OC)c3)nc2n1CC(=O)NC12CC(C3CC3)(C1)C2 [I-212, N-(3-cyclopropylbicyclo[1.1.1]pentan-1-yl)-2-(6-ethyl-5-((1S,6S)-5-(5-hydroxy-6-methylpyrimidine-4-carbonyl)-2,5-diazabicyclo[4.2.0]octan-2-yl)-2-(2-methoxypyridin-4-yl)-4-oxo-2,4-dihydro-7H-pyrazolo[3,4-b]pyridin-7-yl)acetamide]	≤ 500	5 to 50	
CCc1c(N2CCN(C(=O)c3c(O)cc(OC)cc3OC)CC2)c(=O)c2nn(-c3ccnc(OC)c3)nc2n1CC(=O)NC12CC(C3CC3)(C1)C2 [I-132, N-{3-cyclopropylbicyclo[1.1.1]pentan-1-yl}-2-{5-ethyl-6-[4-(2-hydroxy-4,6-dimethoxybenzoyl)piperazin-1-yl]-2-(2-methoxypyridin-4-yl)-7-oxo-2H,4H,7H-[1,2,3]triazolo[4,5-b]pyridin-4-yl}acetamide]	2000 to 5000	5 to 50	
CCc1c(N2CCN(C(=O)c3ncnc(C)c3O)CC2)c(=O)n2nc(C3=CCN(C(=O)COC)CC3)nc2n1CC(=O)NC12CC(C3CC3)(C1)C2 [I-18, N-(3-cyclopropylbicyclo[1.1.1]pentan-1-yl)-2-(5-ethyl-6-(4-(5-hydroxy-6-methylpyrimidine-4-carbonyl)piperazin-1-yl)-2-(1-(2-methoxyacetyl)-1,2,3,6-tetrahydropyridin-4-yl)-7-oxo-[1,2,4]triazolo[1,5-a]pyrimidin-4(7H)-yl)acetamide]	> 5000	5 to 50	
CCc1c(N2CCN(C(=O)c3ncnc(C)c3O)CC2)c(=O)n2nc(N(C)C)nc2n1CC(=O)NC12CC(C(F)(F)F)(C1)C2 [I-33, 2-(2-(dimethylamino)-5-ethyl-6-(4-(5-hydroxy-6-methylpyrimidine-4-carbonyl)piperazin-1-yl)-7-oxo-[1,2,4]triazolo[1,5-a]pyrimidin-4(7H)-yl)-N-(3-(trifluoromethyl)bicyclo[1.1.1]pentan-1-yl)acetamide]	> 5000	100 to 500	
CCc1c(N2CCN(C(=O)c3c(O)ccc4ncoc34)CC2)c(=O)n2nc(-c3ccnc(OC)c3)nc2n1CC(=O)NC12CC(CCF)(C1)C2 [I-31, 2-(5-ethyl-6-(4-(6-hydroxybenzo[d]oxazole-7-carbonyl)piperazin-1-yl)-2-(2-methoxypyridin-4-yl)-7-oxo-[1,2,4]triazolo[1,5-a]pyrimidin-4(7H)-yl)-N-(3-(2-fluoroethyl)bicyclo[1.1.1]pentan-1-yl)acetamide]	500 to 2000	5 to 50	
CCc1c(N2CCN(C(=O)c3c(O)ccc4ncoc34)CC2)c(=O)n2nc(-c3ccnc(OC)c3)nc2n1CC(=O)NC12CC(C3CCC3)(C1)C2 [I-28, N-(3-cyclobutylbicyclo[1.1.1]pentan-1-yl)-2-(5-ethyl-6-(4-(6-hydroxybenzo[d]oxazole-7-carbonyl)piperazin-1-yl)-2-(2-methoxypyridin-4-yl)-7-oxo-[1,2,4]triazolo[1,5-a]pyrimidin-4(7H)-yl)acetamide]	≤ 500	≤ 5	
